row,Compound,melting point
1,Cc1ccc(S(=O)(=O)Nc2ccc3nc(N4CCN(C)CC4)c(N4CCN(C)CC4)nc3c2)cc1,234 to 237 °C
2,CN(C)C(=O)c1cc2n(c1)CCc1ccccc1C2=O,148 to 150 °C
3,COC(=O)c1ccc(-c2ccc(Cl)cc2)c(-c2ccc(Cl)cc2Cl)c1,136 °C
4,Clc1ccccc1-c1nc2occn2c1-c1ccnc(N[C@H]2CN3CCC2CC3)n1,132 to 134 °C
5,CCCC(=O)NC[C@@H]1C[C@H]1c1cc(OC)c(Br)cc1Br (relative stereo),114 to 115 °C
6,O=c1[nH]cnc2c(Br)scc12,226 to 229 °C
7,CCOC(=O)c1cc(NCc2ccccc2)c(Nc2ccc(C)cc2C)c(S(N)(=O)=O)c1,167 to 168 °C
8,FC(F)c1nc2ccccc2n1-c1nc(Nc2cnccn2)nc(N2CCOCC2)n1,271 to 274 °C
9,O=C(CCC1CCN(Cc2ccccc2)CC1)c1ccc(N2CCCC2)cc1,144 to 145 °C
10,CCOC(=O)c1ccc2sc(C=Cc3cccnc3)c(C)c2c1,123 to 124 °C
11,NS(=O)(=O)OCCOc1ccc(Cl)cc1,117 to 119 °C
12,C=C(C)N(c1c(C)cccc1C)S(C)(=O)=O,80 to 81 °C
13,N#Cc1cc(-c2ccc(C(F)(F)F)cc2)ccc1-n1cc(-c2cc(F)cc(F)c2)nn1,229 to 230 °C
14,CS(=O)(=O)c1ccc(-c2cc(C(=O)CCCO)nn2-c2ccc(F)cc2)cc1,164 to 166 °C
15,CS(=O)(=O)Nc1ccc(Cc2n[nH]c3c2c(=O)n(-c2ccccc2)c2ncccc32)cc1,306 to 307 °C
16,CC(C)(C)OC(=O)NC1C(=O)N(OCc2ccccc2)C12CCOCC2 (stereo unspecified),144 to 146 °C
17,COCc1nc2cccnc2n1Cc1ccc(C(=O)N(C(C)C)C2CCCCC2)cc1OC,126 °C
18,CN(C)Cc1cc(C(N)=O)ccc1OCCN(C)Cc1ccc(Cl)cc1,123 to 124 °C
19,CCCCCC(=O)CCC1C(=O)NC(=O)N1CCCCCCC(=O)O (stereo unspecified),84.5 to 86 °C
20,CCSc1nc(C#N)c(C#N)nc1Cl,55 to 58.5 °C

# Continued, values first:
row,melting point,Compound
1,111 °C,COC(=O)COc1cccc2c(CCOS(C)(=O)=O)coc12
2,86 to 87 °C,c1cc(CCCn2ccnc2)cc(OCc2ccc3oc(-c4cccs4)nc3c2)c1
3,195 to 199 °C,CNC(=O)CC(SC(C)=O)C(CC(C)C)C(=O)NC(Cc1ccc(OC)cc1)C(=O)NC (stereo unspecified)
4,195 to 197 °C,c1ccc(-c2cn3c(n2)Cc2ccccc2C3)cc1
5,153 to 156 °C,O=S(=O)(c1cccc(F)c1)c1ccc2[nH]c3c(c2c1)CCNCC3
6,250 to 251 °C,CCc1n[nH]c2c1nc(-c1ccccc1)c1ccccc12
7,121 °C,N#Cc1ccc(C=O)c(N2CCCC2)c1
8,> 250 °C,O=C(O)c1cn(-c2cc(F)cc(C(F)(F)F)c2)cn1
9,108 to 110 °C,CCN(CC)C(=O)c1ccc(C(F)(F)F)cc1-c1ccc(OC)c(OC)c1
10,185 to 186 °C,N#Cc1[nH]c2ccc(Cl)cc2c1-c1ccccc1F
11,212 to 214 °C,Cc1ccc(Nc2nc(C)cs2)nc1
12,131 to 132 °C,CCOC(=O)c1sc(Oc2ccc(C(C)=O)c(O)c2)c2c1CCc1cnn(C)c1-2
13,96 to 98 °C,Cc1ccn(-c2ccc(C=O)cc2)n1
14,121 to 123 °C,O=C(O)C(=O)c1ccc(OCCOc2ccc(C(F)(F)F)cc2)cc1
15,111 to 112 °C,CCCCOc1c(CO)n(CC2CC2)c(=O)c2ccc(Br)cc12
16,198 to 199 °C,NC(=O)c1cc2c(SCc3ccc(Cl)cc3)cncc2s1
17,214 to 216 °C,CC(C)Cn1cnc2c(N)nc3ccc(OCc4ccccc4)cc3c21
18,> 340 °C,O=c1[nH]c2ccsc2[nH]c1=O
19,119 to 120 °C,O=C1CC(CCO)c2ccccc2N1 (stereo unspecified)
20,264 to 266 °C,CC(=O)OCC(=O)C12OCOC1CC1C3CCC4=CC(=O)CCC4(C)C3(F)C(O)CC12C (stereo unspecified)
21,157 to 159 °C,NC(=S)Nc1ccccc1-c1cccc(F)c1

# Reference: a melting point compilation (Tetko et al.; mined from patent text by program, amines drawn as free bases though some values may be those of a salt)
